Calls of active or inactive are those of the source.
Experiments:
[1] = target: T1, Heat shock factor protein 1 (Mus musculus, UniProt P38532); experiment: decrease of HSF1-responsive luciferase luminescence – cell-based, NIH3T3, dose retest, confirmation (AID 2382); type: functional;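 also: NIH3T3 fibroblasts with HSF1-driven luciferase reporter stressed by proteasome inhibitor MG132; luminescence from HSF1-driven luciferase expression after 8 hours of MG132 stress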
T1 sequence (P38532 whole entry): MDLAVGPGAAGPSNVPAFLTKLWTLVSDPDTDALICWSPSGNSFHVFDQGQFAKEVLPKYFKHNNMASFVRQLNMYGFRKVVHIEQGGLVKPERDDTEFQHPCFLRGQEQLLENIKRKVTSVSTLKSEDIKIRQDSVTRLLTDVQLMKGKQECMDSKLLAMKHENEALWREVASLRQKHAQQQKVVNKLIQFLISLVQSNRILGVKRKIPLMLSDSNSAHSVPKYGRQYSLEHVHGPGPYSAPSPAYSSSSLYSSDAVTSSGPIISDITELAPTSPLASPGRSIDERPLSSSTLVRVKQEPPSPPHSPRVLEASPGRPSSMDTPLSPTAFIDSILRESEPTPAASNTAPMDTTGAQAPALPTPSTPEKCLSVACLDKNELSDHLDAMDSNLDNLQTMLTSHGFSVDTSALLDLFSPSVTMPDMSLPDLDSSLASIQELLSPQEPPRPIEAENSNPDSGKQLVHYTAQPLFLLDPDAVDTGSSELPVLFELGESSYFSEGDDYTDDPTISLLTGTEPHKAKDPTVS

cells = conditions: HEK293
[2] = viability of PTEN-deleted HCT116 cells – cell-based, HCT116 PTEN knockout, dose response (AID 1047); type: functional;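 also: HCT116 colon tumor cells with PTEN knocked out; cells exposed to compound for 60 hours before readout; potency for loss of cell viability measured by luminescence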
[3] = viability of HCT116 lacking mutant beta-catenin – cell-based, human colon tumor, dose response (AID 1045); type: functional;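 also: HCT116 colon tumor cells with beta catenin knocked out; cells exposed to compound for 60 hours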
[4] = HEK-293T cell viability reduction – luminescence, B-cell screen hits, cytotoxicity control for BCR NF-kB inhibitor project, dose response (AID 489021); type: functional, cell-based;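 also: HEK-293T cells carrying an NF-kB luciferase reporter; cells exposed to compound for about 14 hours before viability readout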
[5] = target: COUP transcription factor 2 (Homo sapiens, UniProt P24468); experiment: Luminescence-based cell-based high throughput dose response assay to identify inhibitors of COUP-TFII (NR2F2).; type: functional;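 also: HEK293 cells transiently cotransfected with COUP-TFII expression vector and reporter; luciferase reporter luminescence driven by COUP-TFII from the pX2-168 reporter plasmid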
[6] = target: 1-phosphatidylinositol 4,5-bisphosphate phosphodiesterase gamma-1 (Homo sapiens, UniProt P19174); experiment: Counterscreen for inhibitors of phospholipase C isozymes (PLC-B3): Fluorescence-based biochemical high throughput dose response assay to identify inhibitors of phospholipase C isozymes (PLC-gamma1).
[7] = target: 1-phosphatidylinositol 4,5-bisphosphate phosphodiesterase beta-3 (Homo sapiens, UniProt Q01970); experiment: Fluorescence-based biochemical high throughput dose response assay to identify inhibitors of phospholipase C isozymes (PLC-B3).
[8] = target: T2, Calpain-2 catalytic subunit (Sus scrofa, UniProt P43367); experiment: m-calpain protease blockers, concentration series – biochemical, fluorogenic peptide substrate, dose response (AID 1420); type: functional
T2 sequence (P43367 whole entry): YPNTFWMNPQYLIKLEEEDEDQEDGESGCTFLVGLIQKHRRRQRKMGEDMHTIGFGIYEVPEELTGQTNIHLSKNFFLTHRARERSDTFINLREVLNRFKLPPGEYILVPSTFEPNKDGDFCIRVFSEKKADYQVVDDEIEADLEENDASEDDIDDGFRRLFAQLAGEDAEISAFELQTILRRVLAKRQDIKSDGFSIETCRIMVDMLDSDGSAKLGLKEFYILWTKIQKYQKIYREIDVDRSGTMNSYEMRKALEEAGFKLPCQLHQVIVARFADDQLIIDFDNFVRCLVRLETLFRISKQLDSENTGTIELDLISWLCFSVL

[9] = potency of ADAM10 substrate cleavage blockers – biochemical, QFRET, dose response (AID 743254);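 also: ADAM10 enzyme with the DM2 quenched FRET peptide as substrate; EDANS fluorescence gain as the protease cuts the substrate; inhibitor potency against ADAM10 proteolytic activity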
[10] = target: Disintegrin and metalloproteinase domain-containing protein 17 (Homo sapiens, UniProt P78536); experiment: inhibition of ADAM17 substrate cleavage – biochemical, quenched FRET substrate, counter-screen for ADAM10 exosite inhibitor project, dose response (AID 743253)
[11] = activation of miR-122 Renilla sensor silencing – cell-based, Huh7 psiCHECK-miR122, Renilla luciferase, cherry-picked, dose response (AID 651956); type: functional;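 also: huh7 hepatoma cells stably carrying a psiCHECK-2 miR-122 sensor plasmid; renilla luciferase signal reporting endogenous miR-122 activity after 48 h compound exposure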
[12] = general mammalian cell viability loss – inhibitor set, cherry-pick, set 2, cytotoxicity control for miR-122 modulator project, dose response (AID 720697); type: functional, cell-based
[13] = general mammalian cell viability loss – activator set, cherry-pick, cytotoxicity control for miR-122 modulator project, dose response (AID 720690); type: functional, cell-based;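 also: HEK293T human cells scored for general mammalian cytotoxicity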
[14] = target: Endoplasmic reticulum aminopeptidase 1 (Homo sapiens, UniProt Q9NZ08); experiment: inhibition of human ERAP1 enzyme activity – biochemical, cherry-pick, set 2, plate reader, dose response (AID 743314)
[15] = Late stage counterscreen for inhibitors of Trypanosoma brucei methionyl tRNA synthetase (MetRS): Luminescence-based cell-based high throughput dose response assay to identify compounds that are cytotoxic to Jurkat human T lymphocyte cells.; type: functional
[16] = viability loss in Vero cells – cell-based, purified and synthesized samples, set 8, cytotoxicity control for M. tuberculosis inhibitor project (AID 602431); type: functional; conditions: Mycobacterium tuberculosis
[17] = THP-1 cell cytotoxicity, cytotoxicity control, set 6 (AID 602433); type: functional; conditions: Mycobacterium tuberculosis
[18] = human cervical cancer cell viability loss – 24 h, plate reader, dry powder, cytotoxicity control, dose response (AID 686928); type: functional, cell-based; conditions: HeLa
[19] = Luminescence Cell-Based Dose Response HTS to Identify Activators of Luciferase Translation or Activity in H4 […] Cells. [Related pubchem assays: 1829 (Project Summary), 1814 (Primary HTS)]; type: functional
[20] = IC50 of Artemis nuclease activity blockers – biochemical, fluorescence intensity, dose response (AID 720701); type: functional;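 also: Artemis endonuclease enzyme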
Paired box protein Pax-8 = Paired box protein Pax-8 (Homo sapiens, UniProt Q06710); experiment: PAX8 transcriptional activity inhibition in RMG-I – RMG-I cells, luciferase, cherry-pick, dose response (AID 687027); type: functional, cell-based;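 also: luciferase reporter driven by Pax8 target thyroperoxidase promoter measured by SteadyGlo luminescence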
[21] = inhibitors acting on PAX2 in cells – cell-based, plate reader, dry powder samples, selectivity assay for PAX8 inhibitor project, dose response (AID 743048); type: functional;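 also: HEK293 cells carrying a WT1 promoter luciferase reporter driven by expressed Pax2; potency is for inhibition of Pax2 driven reporter signal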
[22] = COV362 cell viability loss – plate reader, dry powder, SA12, cytotoxicity control for PAX8 inhibitor project, dose response (AID 743144); type: functional, cell-based
[23] = OVCAR-3 cell viability loss – plate reader, dry powder samples, PAX8 inhibitor project, dose response (AID 743044); type: functional, cell-based
[24] = PAX5 cellular inhibition readout – cell-based, plate reader, dry powder samples, selectivity assay for PAX8 inhibitor project, dose response (AID 743047); type: functional;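 also: HEK293 cells carrying a Pax5 driven CD19 promoter luciferase reporter; potency of inhibitors that lower reporter luminescence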
[25] = OVCAR4 cell viability loss – plate reader, dry powder, SA11, cytotoxicity control for PAX8 inhibitor project, dose response (AID 743150); type: functional, cell-based; conditions: OVCAR-4
[26] = COV434 cell viability loss – plate reader, dry powder, SA7, cytotoxicity control for PAX8 inhibitor project, dose response (AID 743145); type: functional, cell-based
[27] = OV-90 cell viability loss – plate reader, dry powder, SA8, PAX8 inhibitor project, dose response (AID 743149); type: functional, cell-based
[28] = OVCAR8 cell viability loss – plate reader, dry powder samples, PAX8 project, dose response (AID 743197); type: functional, cell-based; conditions: OVCAR-8
[29] = PAX8-dependent cell viability loss – plate reader, dry powder, dose response (AID 743049); type: functional, cell-based
[30] = toxicity toward immortalized ovarian surface epithelium – cell-based, plate reader, dry powder samples, cytotoxicity control for PAX8 inhibitor project, dose response (AID 743045); type: functional
[31] = A2780 cell killing – plate reader, dry powder samples, cytotoxicity control, dose response (AID 743046); type: functional, cell-based
[32] = IGROV1 cell killing – plate reader, dry powder samples, PAX8 inhibitor project, dose response (AID 743043); type: functional, cell-based; conditions: IGROV-1
[33] = T. cruzi growth inhibition in host cells, dose response, cell-based, plate reader, dry powder, set 2 (AID 652275); type: functional
[34] = Trypanosoma cruzi replication inhibitors in host cells – cell-based, plate reader, dry powder samples, dose response (AID 651845); type: functional
[35] = anti-trypanosomal activity in BESM host cells – imaging, CA-I/72 strain, bovine embryo skeletal muscle, dry powder, dose response (AID 651885); type: functional, cell-based
[36] = MITF Orthogonal Assay: SK-MEL-5 CTG Assay Measured in Cell-Based System Using Plate Reader - 2084-02_Inhibitor_Dose_DryPowder_Activity_Set7.; type: functional
[37] = MITF: Counter assay: A375 proliferation Measured in Cell-Based System Using Plate Reader - 2084-03_Inhibitor_Dose_DryPowder_Activity_Set8.; type: functional; conditions: A-375
[38] = inhibitors of TRPM1-promoter reporter in SK-MEL-5 – cell-based, luciferase, dry powder, set 8, MITF inhibitor project, dose response (AID 624430); type: functional
[39] = Late stage assay provider results from the probe development effort to identify selective inhibitors of heat shock protein 90 (HSP90): Absorbance-based cell proliferation assay in SKBR3 cells.; type: functional; conditions: SK-BR-3
[40] = Late stage assay provider results from the probe development effort to identify selective inhibitors of heat shock protein 90 (HSP90): Absorbance-based cell proliferation assay in MCF7 cells.; type: functional
[41] = Counterscreen for […] of the human trace amine associated receptor 1 (TAAR1): Fluorescence-based cell-based high throughput dose response assay to identify nonselective Ga16 agonists.; type: functional
[42] = target: T3, Trace amine-associated receptor 1 (Homo sapiens, UniProt Q96RJ0); experiment: Fluorescence-based cell-based high throughput dose response assay to identify antagonists of the human trace amine associated receptor 1 (TAAR1).; type: functional
T3 sequence (Q96RJ0 whole entry): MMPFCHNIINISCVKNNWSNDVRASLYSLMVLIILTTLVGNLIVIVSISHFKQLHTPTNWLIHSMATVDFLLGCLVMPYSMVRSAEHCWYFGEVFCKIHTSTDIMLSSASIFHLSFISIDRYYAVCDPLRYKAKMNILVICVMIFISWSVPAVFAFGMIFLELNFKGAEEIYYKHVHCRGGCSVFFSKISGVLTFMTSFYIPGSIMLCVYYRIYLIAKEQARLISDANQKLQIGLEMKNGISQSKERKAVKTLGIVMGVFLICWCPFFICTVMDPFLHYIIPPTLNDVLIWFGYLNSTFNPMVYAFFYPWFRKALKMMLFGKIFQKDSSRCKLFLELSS

[43] = Counterscreen for antagonists of the human trace amine associated receptor 1 (hTAAR1): Fluorescence-based cell-based high throughput dose response assay to identify nonselective Ga16 antagonists.; type: functional
[44] = target: T3, Trace amine-associated receptor 1; experiment: Counterscreen for antagonists of the human trace amine associated receptor 1 (hTAAR1): Fluorescence-based cell-based high throughput dose response assay to identify TAAR1 Agonists.; type: functional

Chain of Paired box protein Pax-8 (Q06710 whole entry): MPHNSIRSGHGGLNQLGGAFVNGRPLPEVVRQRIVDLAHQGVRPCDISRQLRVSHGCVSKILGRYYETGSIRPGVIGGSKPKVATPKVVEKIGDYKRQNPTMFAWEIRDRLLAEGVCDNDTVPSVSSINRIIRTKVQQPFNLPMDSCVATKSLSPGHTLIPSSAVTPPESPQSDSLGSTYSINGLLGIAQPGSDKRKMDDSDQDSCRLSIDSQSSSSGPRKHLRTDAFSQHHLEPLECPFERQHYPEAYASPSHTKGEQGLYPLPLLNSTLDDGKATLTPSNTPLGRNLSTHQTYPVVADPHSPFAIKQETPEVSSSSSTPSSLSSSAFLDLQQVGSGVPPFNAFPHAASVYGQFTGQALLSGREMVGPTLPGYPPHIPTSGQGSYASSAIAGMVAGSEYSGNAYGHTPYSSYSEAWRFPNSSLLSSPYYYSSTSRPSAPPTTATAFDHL
Chain of 1-phosphatidylinositol 4,5-bisphosphate phosphodiesterase gamma-1 (P19174 whole entry): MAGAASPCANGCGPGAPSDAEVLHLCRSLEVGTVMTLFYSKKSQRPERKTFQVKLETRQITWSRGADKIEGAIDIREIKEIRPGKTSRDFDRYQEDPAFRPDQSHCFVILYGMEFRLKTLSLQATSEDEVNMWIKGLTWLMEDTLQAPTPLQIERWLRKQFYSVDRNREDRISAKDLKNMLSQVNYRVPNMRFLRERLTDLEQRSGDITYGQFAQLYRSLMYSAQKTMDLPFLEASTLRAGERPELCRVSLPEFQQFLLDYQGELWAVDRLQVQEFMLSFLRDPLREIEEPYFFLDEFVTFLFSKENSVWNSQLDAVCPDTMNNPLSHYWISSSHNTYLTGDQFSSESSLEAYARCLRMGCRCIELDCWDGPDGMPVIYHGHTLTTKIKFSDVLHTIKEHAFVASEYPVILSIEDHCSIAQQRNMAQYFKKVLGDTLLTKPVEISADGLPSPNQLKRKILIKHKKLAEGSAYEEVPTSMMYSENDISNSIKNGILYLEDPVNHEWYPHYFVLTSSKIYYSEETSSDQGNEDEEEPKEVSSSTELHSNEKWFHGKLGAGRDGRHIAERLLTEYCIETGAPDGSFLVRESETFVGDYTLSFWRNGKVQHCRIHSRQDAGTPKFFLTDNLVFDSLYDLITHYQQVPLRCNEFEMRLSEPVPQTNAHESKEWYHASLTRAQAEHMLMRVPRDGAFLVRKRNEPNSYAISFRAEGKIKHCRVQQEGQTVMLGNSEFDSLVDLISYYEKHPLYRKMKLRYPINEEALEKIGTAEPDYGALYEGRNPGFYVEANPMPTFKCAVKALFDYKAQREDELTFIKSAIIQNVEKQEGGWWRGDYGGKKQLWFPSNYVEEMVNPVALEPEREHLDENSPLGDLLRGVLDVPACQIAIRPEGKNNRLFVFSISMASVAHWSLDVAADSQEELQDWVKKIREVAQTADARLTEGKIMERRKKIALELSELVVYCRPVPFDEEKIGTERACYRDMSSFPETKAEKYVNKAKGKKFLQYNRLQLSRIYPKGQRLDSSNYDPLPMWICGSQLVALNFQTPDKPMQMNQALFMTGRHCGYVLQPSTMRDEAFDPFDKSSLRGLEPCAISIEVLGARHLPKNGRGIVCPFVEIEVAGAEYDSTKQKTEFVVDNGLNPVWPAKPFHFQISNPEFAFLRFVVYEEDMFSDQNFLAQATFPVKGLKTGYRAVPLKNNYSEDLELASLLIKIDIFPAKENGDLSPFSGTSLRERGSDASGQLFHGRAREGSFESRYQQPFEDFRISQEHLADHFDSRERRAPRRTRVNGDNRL
Chain of Disintegrin and metalloproteinase domain-containing protein 17 (P78536 whole entry, the tested form may be a part): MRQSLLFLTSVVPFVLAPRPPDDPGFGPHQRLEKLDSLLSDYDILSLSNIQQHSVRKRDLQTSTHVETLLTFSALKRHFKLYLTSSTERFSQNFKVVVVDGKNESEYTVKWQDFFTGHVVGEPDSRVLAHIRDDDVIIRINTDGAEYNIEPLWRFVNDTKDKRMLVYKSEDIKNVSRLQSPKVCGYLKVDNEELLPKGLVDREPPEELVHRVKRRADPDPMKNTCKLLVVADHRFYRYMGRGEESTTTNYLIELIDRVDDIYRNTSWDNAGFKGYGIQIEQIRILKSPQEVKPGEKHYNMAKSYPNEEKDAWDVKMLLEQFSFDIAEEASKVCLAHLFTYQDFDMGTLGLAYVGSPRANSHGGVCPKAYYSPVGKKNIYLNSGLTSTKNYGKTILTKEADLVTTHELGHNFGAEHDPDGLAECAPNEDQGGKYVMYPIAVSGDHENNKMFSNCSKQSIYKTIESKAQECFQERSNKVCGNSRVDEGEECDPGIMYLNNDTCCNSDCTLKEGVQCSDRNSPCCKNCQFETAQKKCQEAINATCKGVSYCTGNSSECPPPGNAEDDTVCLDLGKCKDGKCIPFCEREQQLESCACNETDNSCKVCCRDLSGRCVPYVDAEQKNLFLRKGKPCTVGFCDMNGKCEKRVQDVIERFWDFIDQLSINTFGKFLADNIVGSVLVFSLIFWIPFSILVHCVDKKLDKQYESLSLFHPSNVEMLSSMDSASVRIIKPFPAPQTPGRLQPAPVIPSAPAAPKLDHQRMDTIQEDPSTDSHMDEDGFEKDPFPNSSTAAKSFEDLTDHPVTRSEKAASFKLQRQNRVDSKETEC
Chain of COUP transcription factor 2 (P24468 whole entry): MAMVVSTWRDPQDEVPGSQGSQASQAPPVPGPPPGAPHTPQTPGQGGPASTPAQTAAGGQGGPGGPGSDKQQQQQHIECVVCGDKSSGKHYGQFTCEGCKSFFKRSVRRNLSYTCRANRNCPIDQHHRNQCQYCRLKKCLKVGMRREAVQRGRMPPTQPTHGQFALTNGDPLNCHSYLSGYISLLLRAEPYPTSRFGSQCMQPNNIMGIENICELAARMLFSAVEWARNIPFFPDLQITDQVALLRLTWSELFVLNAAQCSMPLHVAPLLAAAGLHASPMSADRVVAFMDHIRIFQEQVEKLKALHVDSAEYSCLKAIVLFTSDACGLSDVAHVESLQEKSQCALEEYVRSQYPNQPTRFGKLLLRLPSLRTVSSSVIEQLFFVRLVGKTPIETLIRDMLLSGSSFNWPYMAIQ
Chain of Endoplasmic reticulum aminopeptidase 1 (Q9NZ08 whole entry): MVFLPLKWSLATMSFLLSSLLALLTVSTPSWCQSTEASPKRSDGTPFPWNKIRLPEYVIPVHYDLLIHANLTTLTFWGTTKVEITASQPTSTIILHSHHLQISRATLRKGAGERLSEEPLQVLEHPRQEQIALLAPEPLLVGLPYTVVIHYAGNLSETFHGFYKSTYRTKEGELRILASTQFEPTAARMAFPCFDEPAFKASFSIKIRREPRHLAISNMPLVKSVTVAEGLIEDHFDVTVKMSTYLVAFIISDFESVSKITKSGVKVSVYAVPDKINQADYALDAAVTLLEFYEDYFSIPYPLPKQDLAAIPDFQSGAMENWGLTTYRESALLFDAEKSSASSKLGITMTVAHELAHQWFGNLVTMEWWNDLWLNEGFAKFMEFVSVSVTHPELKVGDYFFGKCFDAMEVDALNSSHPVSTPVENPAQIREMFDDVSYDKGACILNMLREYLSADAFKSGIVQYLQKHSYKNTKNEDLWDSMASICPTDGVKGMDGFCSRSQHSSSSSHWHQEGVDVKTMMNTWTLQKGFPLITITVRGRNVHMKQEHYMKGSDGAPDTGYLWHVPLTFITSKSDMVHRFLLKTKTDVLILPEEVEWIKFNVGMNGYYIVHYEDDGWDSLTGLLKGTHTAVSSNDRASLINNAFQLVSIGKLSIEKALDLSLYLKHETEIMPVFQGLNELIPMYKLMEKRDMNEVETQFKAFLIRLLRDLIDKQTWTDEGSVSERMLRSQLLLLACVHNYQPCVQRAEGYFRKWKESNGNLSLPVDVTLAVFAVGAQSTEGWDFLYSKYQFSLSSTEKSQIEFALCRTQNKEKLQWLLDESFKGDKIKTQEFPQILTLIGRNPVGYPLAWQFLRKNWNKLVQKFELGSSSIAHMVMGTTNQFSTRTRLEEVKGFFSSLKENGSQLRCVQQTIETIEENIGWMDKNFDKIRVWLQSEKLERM

SMILES: Cc1cc(-c2ccccc2)c2ccc(NC(=O)C(C)(C)C)nc2n1
- EC50 [1]: > 195 µM (not active)
- AC50 (cells): > 52 µM (inactive)

SMILES: CN(CC1CCCO1)S(=O)(=O)c1ccc(C(=O)Nc2nc3cc4c(cc3s2)OCO4)cc1 (centres undefined)
- EC50 [2]: 9.25 µM (active)
- EC50 [3]: 6.11 µM (active)
- IC50 [4]: > 80 µM (inactive)
- IC50 [5]: 2.68 µM (active)

SMILES: CCn1c(=S)sc2c(=O)n(CC(=O)Nc3cccc(Cl)c3)c(C)nc21
- IC50 [6]: > 122 µM (inactive)
- IC50 [7]: > 122 µM (inactive)

SMILES: O=C(COC(=O)CCCSc1nc2ccccc2[nH]1)Nc1ccc(Oc2ccccc2)cc1
- IC50 [8]: 7.16 µM (not active)
- IC50 [9]: 8.39 µM (active)
- IC50 [10]: > 69.5 µM (inactive)

SMILES: CCOC(=O)N1CCC(NC(=O)c2ccc3c(c2)sc2nc(-c4ccccc4)cn23)CC1
- AC50 [11]: 1.26 µM (active)
- AC50 [12]: 13.6 µM (active)
- AC50 [13]: 12.3 µM (active)

SMILES: Cc1cc(N(C)Cc2ccccc2)nc2cc(O)ccc12
- AC50 [14]: 11.3 µM (active)

SMILES: O=C(CN1CCSC1=NCc1ccccc1)c1ccc(Cl)c(Cl)c1
- IC50 [15]: 83.2 µM (inactive)

SMILES: O=C(CSc1nc2ccccc2c(=O)[nH]1)NC1CCCCC1
- CC50 [16]: > 100 µM (inconclusive)
- CC50 [17]: > 100 µM (inconclusive)
- AC50 [18]: > 160 µM (inactive)

SMILES: Nc1ccc2[nH]c(-c3ccccn3)nc2c1
- EC50 [19]: 24.6 µM (active)
- IC50 [20]: 16.7 µM (active)

SMILES: N#C[C@H]1[C@@H](c2ccc(C#Cc3ccc(F)cc3)cc2)[C@H](CO)N1C(=O)C1CCCC1
- AC50 (Paired box protein Pax-8): 13.4 µM (active)
- AC50 [21]: 9.19 µM (active)
- AC50 [22]: 33.3 µM (active)
- AC50 [23]: 34.5 µM (active)
- AC50 [24]: 8.42 µM (active)
- AC50 [25]: > 70 µM (inactive)
- AC50 [26]: 26.2 µM (active)
- AC50 [27]: 26.5 µM (active)
- AC50 [28]: > 70 µM (inactive)
- AC50 [29]: 18.6 µM (active)

SMILES: Cc1ccc(S(=O)(=O)Nc2ccc3c(c2)C(=O)N([C@H](C)CO)C[C@H](C)[C@@H](CN(C)S(=O)(=O)c2ccc(F)cc2)OCCCC[C@H](C)O3)cc1
- AC50 (Paired box protein Pax-8): 2.11 µM (active)
- AC50 [30]: 6.87 µM (active)
- AC50 [31]: 7.45 µM (active)
- AC50 [23]: 9 µM (active)
- AC50 [32]: 14.8 µM (active)
- AC50 [28]: 11 µM (active)

SMILES: CC(C)N1C[C@H](C)[C@@H](CN(C)Cc2ccccc2)Oc2c(NC(=O)c3ccncc3)cccc2C1=O
- AC50 [33]: 0.00035 µM (active)
- AC50 [34]: 0.00035 µM (active)
- IC50 [35]: 0.0026 µM (active)

SMILES: O=C1C=C(Nc2cccc(Cl)c2)C(=O)c2ccccc21
- AC50 [36]: 0.683 µM (active)
- AC50 [37]: 22.3 µM (active)
- AC50 [38]: 23.9 µM (active)

SMILES: O=C(O)c1cccc(COc2ccc3cc(Br)c(=O)oc3c2)c1
- IC50 [39]: > 100 µM (inactive)
- IC50 [40]: > 100 µM (inactive)

SMILES: CSC(=S)N/N=C/c1c[nH]c2ccccc12
- EC50 [41]: > 29.9 µM (inactive)
- IC50 [42]: 2.6 µM (active)
- IC50 [43]: 28.1 µM (inactive)
- EC50 [44]: > 29.9 µM (inactive)

— ChEMBL document CHEMBL1201862, “PubChem BioAssay data set” (2004)
